From ChEMBL document CHEMBL5634125, “Investigation of novel 5'-amino adenosine derivatives with potential anti-Zika virus activity” (Eur J Med Chem, 2023)
pIC50: −log10 of the molar value. Activity calls are given as the source filed them. The calls are words filed in the database; no cut-off is given here.

Assays:
[1] = Half-life in ICR mouse at 25 mg/kg, po administered as single dose and measured upto 24 hrs by LC-MS/MS analysis; type: ADME, organism-based; conditions: in vivo
Zika virus [2] = test: Antiviral activity against Zika virus infected in golden hamster BHK cells assessed as inhibition of virus induced cytopathic effect incubated for 6 to 8 days by CellTiter-Glo luminescent cell viability assay; type: functional, organism-based
[3] = Tmax in ICR mouse at 25 mg/kg, po administered as single dose and measured upto 24 hrs by LC-MS/MS analysis; type: ADME, organism-based; conditions: in vivo
[4] = Cmax in ICR mouse at 25 mg/kg, po administered as single dose and measured upto 24 hrs by LC-MS/MS analysis; type: ADME, organism-based; conditions: in vivo
[5] = AUC (0 to t) in ICR mouse at 25 mg/kg, po administered as single dose and measured upto 24 hrs by LC-MS/MS analysis; type: ADME, organism-based; conditions: in vivo
[6] = MRT in ICR mouse at 25 mg/kg, po administered as single dose and measured upto 24 hrs by LC-MS/MS analysis; type: ADME, organism-based; conditions: in vivo
[7] = Acute toxicity in A129 mouse assessed as animal death at 50 mg/kg, po measured after 2 weeks; type: organism-based; conditions: in vivo, 336 h
[8] = Acute toxicity in A129 mouse assessed as animal death at 100 mg/kg, po measured after 2 weeks; type: organism-based; conditions: in vivo, 336 h
[9] = Acute toxicity in A129 mouse assessed as animal death at 200 mg/kg, po measured after 2 weeks; type: organism-based; conditions: in vivo, 336 h
[10] = Acute toxicity in po dosed ICR mouse assessed as lethal dose measured after 2 weeks; type: organism-based; conditions: in vivo
Zika virus [11] = test: Antiviral activity against Zika virus infected in golden hamster BHK cells assessed as inhibition of viral protein production incubated for 72 hrs by Western blot analysis; type: functional, organism-based; conditions: dose 2.5-20 µM
Zika virus [12] = test: Antiviral activity against Zika virus infected in golden hamster BHK cells assessed as inhibition of viral replication incubated for 72 hrs by qRT-PCR analysis; type: functional, organism-based; conditions: dose 2.5-20 µM
Zika virus [13] = test: Antiviral activity against Zika virus infected in golden hamster BHK cells assessed as reduction in infectious viral propagation incubated for 72 hrs by plaque reduction assay; type: functional, organism-based; conditions: dose 2.5-20 µM
Zika virus [14] = test: Antiviral activity against Zika virus infected in infected in golden hamster BHK cells assessed as inhibition of viral RNA production at stage III incubated for 24 hrs by qRT-PCR analysis; type: functional, organism-based
Zika virus [15] = test: Antiviral activity against Zika virus infected in golden hamster BHK cells assessed as inhibition of viral RNA production at stage IV pre-infected with virus for 2 hrs followed by compound addition and measured 24 hrs post infection by qRT-PCR analysis; type: functional, organism-based; conditions: time 22.0 hrs
Dengue virus [16] = test: Antiviral activity against Dengue virus assessed as inhibition of viral RNA production at stage III; type: functional, organism-based
Dengue virus [17] = test: Antiviral activity against Dengue virus assessed as inhibition of viral RNA production at stage IV; type: functional, organism-based
Zika virus [18] = test: Antiviral activity against Zika virus infected in golden hamster BHK-21 cells assessed as inhibition of viral replication incubated for 72 hrs by Dual-luciferase reporter assay system; type: functional, organism-based; conditions: BHK-21, 72 h
Zika virus [19] = test: Inhibition of Zika virus NS5 MTase activity at 50 uM by chemiluminescence-based enzymatic assay system relative to control
Zika virus [20] = test: Inhibition of Zika virus NS2B-NS3 protease using Bz-Nle-Lys-Lys-Arg-AMC as substrate at 1.25 to 200 uM preincubated for 30 mins followed by substrate addition and measured after 20 mins by Real-time fluorescence based analysis; conditions: dose 1.25-200 µM, time 50.0 min
Zika virus [21] = test: Inhibition of Zika virus NS5-RdRp preincubated for 20 mins followed by ATP addition and measured after 60 mins by fluorescence based assay; conditions: dose 3.13-50 µM, time 80.0 min
Zika virus [22] = test: Inhibition of Zika virus NS5-RdRp at 12.5 uM preincubated for 20 mins followed by ATP addition and measured after 60 mins by fluorescence based assay relative to control; conditions: time 80.0 min
Zika virus [23] = test: Inhibition of Zika virus NS5-RdRp at 50 uM preincubated for 20 mins followed by ATP addition and measured after 60 mins by fluorescence based assay relative to control; conditions: time 80.0 min
[24] = Inhibition of Zika virus NS5 transfected in HEK293T cells co-transfected with GLuc reporter plasmid incubated for 24 hrs by GLuc reporter assay; type: cell-based; conditions: HEK-293T
NS5 (Zika virus) = NS5 (Zika virus) (UniProt A0A143MHK7); test: Binding affinity to Zika virus RdRp by SPR analysis; conditions: dose 1.56-25 µM
Zika virus [25] = test: Antiviral activity against Zika virus infected in U87 cells assessed as suppression of CXCL11 expression at 10 uM by KEGG enrichment analysis; type: functional, organism-based
U-87MG ATCC [26] = test: Effect on CXCL2 expression in human U87 cells infected with Zika virus at 10 uM by KEGG enrichment analysis; type: functional, cell-based
U-87MG ATCC [27] = test: Effect on CXCL3 expression in human U87 cells infected with Zika virus at 10 uM by KEGG enrichment analysis; type: functional, cell-based
U-87MG ATCC [28] = test: Effect on CXCL8 expression in human U87 cells infected with Zika virus at 10 uM by KEGG enrichment analysis; type: functional, cell-based
Zika virus [29] = test: Antiviral activity against Zika virus SMGC-1 infected in ICR mouse assessed as survival at 10 mg/kg, ip pre-infected with virus for 4 hrs followed by once daily compound administration for 9 days and measured after 24 days relative to control; type: functional; conditions: SMGC-1, 576 h, time 24 day
Zika virus [30] = test: Antiviral activity against Zika virus SMGC-1 infected in ICR mouse assessed as increase in body weight at 10 mg/kg, ip pre-infected with virus for 4 hrs followed by once daily compound administration for 9 days and measured at 14 to 24 days; type: functional, organism-based; conditions: time 14-24 day
Zika virus [31] = test: Antiviral activity against Zika virus SMGC-1 infected in ICR mouse assessed as survival at 1 mg/kg, ip pre-infected with virus for 4 hrs followed by once daily compound administration for 9 days and measured after 24 days relative to control; type: functional; conditions: SMGC-1, 576 h, time 24 day
Zika virus [32] = test: Antiviral activity against Zika virus infected in Ifnar-/- A129 mouse assessed as reduction in viral RNA in serum at 10 mg/kg, ip administered twice daily for 4 days by qRT-PCR analysis; type: functional, organism-based; conditions: time 4.0 day

## O[C@@H]1[C@H](O)[C@@H](CNCc2ccc(C(F)(F)F)cc2)O[C@H]1n1cnc2c(NCc3cccc(Cl)c3)ncnc21
[1]
  half-life: 2.46 h
Zika virus [2]
  pIC50: 5.67
[3]
  Tmax: 0.42 h
[4]
  Cmax: 0.699 µg/mL
[5]
  AUC(0-t) at 24 h: 2.22 µg·h/mL
[6]
  MRT: 3.82 h
[7]
  Activity: Non-Toxic
[8]
  Activity: Non-Toxic
[9]
  Activity: Non-Toxic
[10]
  LD50 at 336 h: > 200 mg/kg
Zika virus [11]
  Activity: Dose-Dependent Effect
Zika virus [12]
  Activity: Dose-Dependent Effect
Zika virus [13]
  Activity: Dose-Dependent Effect
Zika virus [14]
  Activity: Active
Zika virus [15]
  Activity: Active
Dengue virus [16]
  Activity: Active
Dengue virus [17]
  Activity: Active
Zika virus [18]
  pIC50: 5.28
Zika virus [19]
  inhibition: 20.5%
Zika virus [20]
  inhibition: inactive
Zika virus [21]
  inhibition: Dose-Dependent Effect
Zika virus [22]
  inhibition: 17.5%
Zika virus [23]
  inhibition: 62.4%
[24]
  pIC50: 5.06
NS5 (Zika virus)
  Activity: Dose-Dependent Effect
Zika virus [25]
  Activity: Active
U-87MG ATCC [26]
  Activity: inactive
U-87MG ATCC [27]
  Activity: inactive
U-87MG ATCC [28]
  Activity: inactive
Zika virus [29]
  survival at 10 mg/kg: 70%
Zika virus [30]
  Activity: Active
Zika virus [31]
  survival at 1 mg/kg: 30%
Zika virus [32]
  Activity: Active
